Assay results reported in US5183819A, “Use of fused bicyclic imides in the treatment of various CNS disorders” (American Home Products Corporation, priority 1992, dated 1993).

Columns and labels:
[1] = test system: isolation-induced aggressive mice; conditions: White et al. 1991; cited from earlier work
[2] = test system: monkeys with a preference for alcohol; conditions: cited from earlier work
rats = conditions: intravenous or subcutaneous administration; cited from earlier work
male Wistar rats = assay: Ethanol consumption, free choice between water and 5% aqueous ethanol; conditions: zalospirone 40 mg/kg, fluoxetine 10 mg/kg intraperitoneal; for ethanol consumed compared to control (Ringer's solution): treatment periods, g/kg or ml/rat basis
Procedure: A 12 hour light/dark cycle was programmed with darkness commencing at 1900 hr. […] The drinking tube positions were switched daily. The ethanol concentration was increased by 1% every 3 days until a concentration of 5% was reached. All rats were weighed daily and water or aqueous ethanol intake recorded.
After 3 days at the 5% ethanol concentration the rats that had consumed the 5% ethanol consistently began baseline and the inconsistent or poor drinkers were dropped from the study. A total of 30 rats began baseline studies. Baseline consisted of 8 days of free choice between water and 5% aqueous ethanol. During this time each rat received intraperitoneal injections of Ringer's solution (NaCl, 0.86 g; KCl, 0.03 g; and CaCl2.2H2 O, 0.033 g diluted to 100 ml with distilled water). Weight and water or 5% aqueous ethanol consumption were determined daily at 0800 hr and 1800 hr.

mice = conditions: White et al. 1991; cited from earlier work

Structure (SMILES)	aggression in isolation-induced aggressive mice [1]	paradoxical sleep (rats)	slow wave sleep (rats)	wakefulness (rats)	ethanol consumed compared to control (Ringer's solution) (male Wistar rats)	total fluid intake vs control animals (male Wistar rats)	water consumption, treated vs. control rats (male Wistar rats)	other results
CC1(C)CC(=O)N(CCCCN2CCN(c3ncccn3)CC2)C(=O)C1 [gepirone]	reduce aggression							
O=C1CC2(CCCC2)CC(=O)N1CCCCN1CCN(c2ncccn2)CC1 [buspirone]	reduce aggression	reduced	reduced	increased wakefulness				preference for alcohol [2]: lower the preference for alcohol
CNCCC(Oc1ccc(C(F)(F)F)cc1)c1ccccc1 (centres unmarked) [fluoxetine]					significantly less ethanol	less than with the control animals	no significant differences	food consumption compared to control rats (male Wistar rats): decreased food consumption; weight gain compared to control rats (male Wistar rats): significantly less weight gain
O=C1c2ccccc2S(=O)(=O)N1CCCCN1CCN(c2ncccn2)CC1 [ipsapirone]	reduce aggression							
O=C1C2C3C=CC(C4C=CC43)C2C(=O)N1CCCCN1CCN(c2ncccn2)CC1 (centres unmarked) [zalospirone, 3a,4,4a,6a,7a-hexahydro-2-[4-[4-(2-pyrimidinyl)-1-piperazinyl]butyl]-4,7-ethano-1H-cyclobut[f]isoindole-1,3(2H)-dione]	reduce aggression				significantly less ethanol	less than with the control animals	no significant differences	debilitating (sedating) effects at the antiaggressive dose (mice): without the debilitating (sedating) effects
CCCN(CCC)C1CCc2cccc(O)c2C1 (centres unmarked) [8-OH-DPAT, 8-hydroxy-2-(di-n-propylamino)tetralin]		reduced	reduced	increased wakefulness				
